The results in this text go back to US10105467B2, “Biocompatible polymer compositions for tissue void filling” (Rutgers, The State University of New Jersey, priority 2013, dated 2018).

Data set [1] deals with MDA-MB-231 breast cancer cells. The experiment in a line: In vitro cytotoxicity, Alamar blue metabolic assay, scaffolds in transwell inserts. The data set is classed as cell-based. How it is done: MDA-MB-231 breast cancer cells and primary human dermal fibroblasts (HDFs) were obtained from the ATCC (USA). Both cell types were cultured in DMEM supplemented with 10% fetal bovine serum (FBS) and 25 μg/mL Gentamicin. For toxicity studies HDFs were seeded at 5,000 cells per well/1 mL medium in a 12-well plate and allowed to reach confluency prior to application of experimental conditions. MDA-MB-231 cell were seeded in 12-well plates at a seeding density of 5,000 per well/1 mL medium and incubated at 37° C. in a humidified atmosphere of 95% air and 5% CO2 for 24 h prior to application of experimental conditions. […]
Cells subjected to these experimental conditions were allowed to culture for 6 days at which point cell viability was measured using Alamar blue metabolic assay. […] The supernatant from each well was transferred to a 96-well plate and was measured using a fluorescence plate reader (Tecan, Männedorf, Switzerland) by applying wavelength excitation of 560 nm and read it at emission of 590 nm, which is directly correlated to the viable cell number, and inversely correlated with the toxicity of the cross-linked polymer tissue scaffolds. The mean absorbance for each treatment was determined and then expressed as a percent of viability relative to the control. […]

A further data set concerns rabbit liver esterase. The experiment in a line: Incubation with rabbit liver esterase, HPLC analysis. The data set is classed as in vitro ADME. Particulars: 30 min.

Each structure is given as a SMILES string.

`COc1cc(/C=C/C(=O)CC(=O)/C=C/c2ccc(O)c(OC)c2)ccc1O` [free curcumin, curcumin] yielded an IC50 in data set [1] (Homo sapiens, 144 h, MDA-MB-231, 6 days, free curcumin dissolved in DMSO, diluted in media, max 1% DMSO) of 14 µM. Moreover, the “curcumin uptake by cells or degradation after addition to media” value in data set [1] (free curcumin added to cell culture media) is listed as “less than 48 hours”.
On to `CCOC(=O)[C@H](Cc1ccc(O)cc1)NC(=O)CCc1ccc(O)cc1` [DTE, desaminotyrosyl-tyrosine ethyl ester], for which the “conversion to the free acid” value in the data set with rabbit liver esterase is given as “approximately 70%”.
